We go through 18 compounds from patent US20260226049A1, “NITROGEN-CONTAINING HETEROCYCLIC COMPOUND, PREPARATION METHOD THEREFOR, AND USE THEREOF” (BIVISION PHARMACEUTICALS, INC, priority 2023, published 2026).

One test has as its target T1, FAP protein (Homo sapiens, UniProt Q12884).
T1 construct: purchased Sinobiological
T1 sequence (Q12884 1-760): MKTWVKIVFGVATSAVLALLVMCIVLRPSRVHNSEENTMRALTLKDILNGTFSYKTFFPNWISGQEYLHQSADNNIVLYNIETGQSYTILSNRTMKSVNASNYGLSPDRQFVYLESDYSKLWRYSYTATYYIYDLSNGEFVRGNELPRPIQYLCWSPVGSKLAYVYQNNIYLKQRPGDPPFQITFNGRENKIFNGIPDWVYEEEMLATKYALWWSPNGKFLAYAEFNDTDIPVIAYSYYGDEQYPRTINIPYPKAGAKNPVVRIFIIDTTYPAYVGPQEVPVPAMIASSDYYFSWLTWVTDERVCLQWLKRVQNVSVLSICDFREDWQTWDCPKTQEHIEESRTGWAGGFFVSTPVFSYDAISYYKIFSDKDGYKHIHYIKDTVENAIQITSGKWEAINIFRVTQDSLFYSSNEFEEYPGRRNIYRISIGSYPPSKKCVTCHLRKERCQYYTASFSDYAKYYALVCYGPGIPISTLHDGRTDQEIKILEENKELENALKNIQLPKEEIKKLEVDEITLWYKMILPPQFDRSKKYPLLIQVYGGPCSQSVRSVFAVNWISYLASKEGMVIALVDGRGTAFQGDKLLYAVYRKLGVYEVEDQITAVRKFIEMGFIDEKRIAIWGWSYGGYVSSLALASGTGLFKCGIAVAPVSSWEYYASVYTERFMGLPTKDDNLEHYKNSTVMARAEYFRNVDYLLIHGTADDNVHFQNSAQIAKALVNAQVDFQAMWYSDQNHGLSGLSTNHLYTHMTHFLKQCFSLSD
Nature of the test: Biacore test of ligand binding to FAP protein. The note with it: FAP protein on SA chip, 15° C., 1:1 binding model. How it is done: The Biacore 8K (Cytiva) instrument was used to detect ligand binding of the FAP protein (Sinobiological). The FAP protein was captured on the SA chip. Before ligand immobilization (flow paths 1 and 2, flow rate of 10 μL/min), the FAP protein (10 μg/mL, flow rate of 5 μL/min, injection time of 600 s) was immobilized on flow path 2 using running buffer, and the sensor surface was conditioned with three consecutive injections of 1 M NaCl in 50 mM NaOH. After each ligand injection, additional washing was carried out with isopropanol in 1 M NaCl and 50 mM NaOH (flow paths 1 and 2, flow rate of 10 μL/min, injection time of 60 s).
The test compounds were dissolved in 100% dimethyl sulfoxide and diluted to 10 mM, then further diluted in the assay buffer (PBS, pH 7.4, 1 mM TCEP ([…]), 0.05% P20, 2% dimethyl sulfoxide) to appropriate maximum concentrations. The analyte was run under the following conditions: analysis temperature=15° C., analysis step=all set to LMW kinetics; cycle type=single cycle (90 s contact time, 1800 s dissociation time, 30 μL/min flow rate, flow channels 1, 2); flow channel detection=2-1). Data evaluation was performed using Biacore Insight Evaluation Software, and the data were fitted to a 1:1 binding model.
The Biacore results are shown in Table 1: pKD=−Log KD, where KD is the binding affinity of the compound to the FAP protein as measured by Biacore. The binding affinity is expressed by KD (M)=Kd(1/s)/Ka(1/Ms). Where A: pKD>8, B: 7<pKD<8, C: 6<pKD<7, D: pKD<6.
Background: Surface plasmon resonance follows binding to a sensor surface in real time, without labels.

Test [1] has as its system HT1080 cell line with high FAP expression. Nature of the test: Therapeutic experiment of ^177Lu-labeled compounds in tumor-bearing mice. The following applies: for T/C / Tumor volume (mm^3) Group administration Day 14 / TGI^TV (%): 0.8 mCi; for T/C / Tumor volume (mm^3) Group administration Day 14: Day 14; for TGI^TV (%): Day 14, relative tumor inhibition rate; for Tumor volume (mm^3) Before administration: baseline, 0.8 mCi group. The format is in vivo, Balb/c Nude mice. How it is done: Balb/c Nude tumor-bearing mice (supplier: Shanghai Alamo Pharmaceutical Technology Co., Ltd., HT1080 cell line with high FAP expression) aged approximately 6-8 weeks were randomly assigned to 13 experimental groups based on tumor volume, with 5 mice per group. Animal body weight and tumor size were measured, and administration was initiated on the grouping day starting with Group 1 (control group: normal saline). General health and appearance were observed daily after the start of the experiment. Animal body weight and tumor size were measured before each sample collection time point. Any abnormal observations detected during the entire study period were required to be recorded in the raw data.
The synthesized compounds were labeled with ^177Lu and subsequently utilized in the therapeutic assay on mouse tumor models. […] Furthermore, no significant changes in mouse body weight (FIG. 8) were observed throughout the experimental period.
• TGI^TV: Relative tumor inhibition rate (TGI^TV): TGI^TV (%)=[1−(Ti−T0)/(Vi−V0)]×100%; • (Ti: average tumor volume of the treatment group on day i of administration, TO: average tumor volume of the treatment group on day 0 of administration; Vi: average tumor volume of the solvent control group on day i of administration, V0: average tumor volume of the solvent control group on day 0 of administration) • T/C: T/C % is one of the most commonly used indicators for tumor response to treatment: T/C %=T/C*100%; • (T represents the average tumor volume of the treatment group at a specific time point; C represents the average tumor volume of the control group at a specific time point.)
The differences between the treatment groups (tumor volumes of the second, third, fourth, and fifth groups) and the control group (tumor volume of the first group) and between the tumor volumes of the first, third, fourth, and fifth groups and the tumor volume of the second group were analyzed using the two-way ANOVA Fisher's LSD test method. P-values less than 0.05 were considered statistically significant. Both statistical significance and biological significance were taken into account during the result analysis.

The structures appear in SMILES notation.

In turn, `O=C(O)CN1CCN(CC(=O)O)CCN(CC(=O)NCc2ccc(C(=O)N[C@H](CO)C(=O)N3CCC[C@H]3B(O)O)cc2)CCN(CC(=O)O)CC1` [JHB1] had a Kd on FAP protein of 10 to 100 nM.

For the compound `C[C@@H](NC(=O)c1ccc(CNC(=O)CCC(=O)NCCCC[C@H](NC(=O)CCC(=O)NCc2ccc(C(=O)N[C@H](C)C(=O)N3CCC[C@H]3B(O)O)cc2)C(=O)NCCOCCNC(=O)CN2CCN(CC(=O)O)CCN(CC(=O)O)CCN(CC(=O)O)CC2)cc1)C(=O)N1CCC[C@H]1B(O)O` [JHDB2], at FAP protein, the Kd was 100 to 1000 nM.

With `N#C[C@@H]1CC(F)(F)CN1C(=O)CNC(=O)c1ccc2c(c1)CCN(C(=O)CCC(=O)NCC(=O)N1CN(C(=O)CNC(=O)CCC(=O)N3CCc4cc(C(=O)NCC(=O)N5CC(F)(F)C[C@H]5C#N)ccc4C3)CN(C(=O)CNC(=O)CN3CCN(CC(=O)O)CCN(CC(=O)O)CCN(CC(=O)O)CC3)C1)C2` [JHDB6], at FAP protein, the Kd was less than 10 nM.

In the case of `N#C[C@@H]1CC(F)(F)CN1C(=O)CNC(=O)c1cccc(C2CCN(C(=O)CCC(=O)NCC(=O)N3CN(C(=O)CNC(=O)CCC(=O)N4CCC(c5cccc(C(=O)NCC(=O)N6CC(F)(F)C[C@H]6C#N)c5)CC4)CN(C(=O)CNC(=O)CN4CCN(CC(=O)O)CCN(CC(=O)O)CCN(CC(=O)O)CC4)C3)CC2)c1` [JHDB7], the Kd on FAP protein is 10 to 100 nM.

For `N#C[C@@H]1CC(F)(F)CN1C(=O)CNC(=O)c1ccc2c(n1)CCN(C(=O)CCC(=O)NCCNC(=O)CCC(C(=O)O)N1CCN(CC(=O)O)CCN(CC(=O)O)CCN(CC(=O)O)CC1)C2` (stereo partly drawn) [JHH2], the Kd on FAP protein was 10 to 100 nM.

`N#C[C@@H]1CC(F)(F)CN1C(=O)CNC(=O)c1cc2c(s1)CCN(C(=O)CCC(=O)NCCNC(=O)CCC(C(=O)O)N1CCN(CC(=O)O)CCN(CC(=O)O)CCN(CC(=O)O)CC1)C2` (stereo partly drawn) [JHH3]: at FAP protein, the Kd is less than 10 nM.

For `N#C[C@@H]1CC(F)(F)CC1C(=O)CNC(=O)c1ccc2c(c1)CCN(C(=O)CCC(=O)NCCNC(=O)CCC(C(=O)O)N1CCN(CC(=O)O)CCN(CC(=O)O)CCN(CC(=O)O)CC1)C2` (stereo partly drawn) [JHH6], the dissociation constant (Kd) on FAP protein was 100 to 1000 nM.

As for `C[C@@H]1CC(F)(F)CN1C(=O)CNC(=O)c1ccc2c(c1)CN(C(=O)CCC(=O)NCCNC(=O)CCC(C(=O)O)N1CCN(CC(=O)O)CCN(CC(=O)O)CCN(CC(=O)O)CC1)C2` (stereo partly drawn) [JHH7], the Kd at FAP protein is less than 10 nM.

`N#C[C@@H]1CC(F)(F)CN1C(=O)CNC(=O)c1cc2c(s1)CCN(C(=O)CCC(=O)NCCNC(=O)CCNC(=O)CN1CCN(CC(=O)O)CCN(CC(=O)O)CCN(CC(=O)O)CC1)C2` [JHH11] showed a Kd on FAP protein of less than 10 nM.

`N#C[C@@H]1CC(F)(F)CN1C(=O)CNC(=O)c1ccc2c(c1)CCN(C(=O)CCC(=O)NCCNC(=O)CCNC(=O)CN1CCN(CC(=O)O)CCN(CC(=O)O)CCN(CC(=O)O)CC1)C2` [JHH12] gave a dissociation constant (Kd) on FAP protein of less than 10 nM.

With `N#C[C@@H]1CC(F)(F)CN1C(=O)CNC(=O)c1ccc2c(c1)CCCN2C(=O)CCC(=O)NCCNC(=O)CCNC(=O)CN1CCN(CC(=O)O)CCN(CC(=O)O)CCN(CC(=O)O)CC1` [JHH13], the dissociation constant (Kd) on FAP protein was 10 to 100 nM.

For `N#C[C@@H]1CC(F)(F)CN1C(=O)CNC(=O)c1cccc2c1CCCC2C(=O)CCC(=O)NCCNC(=O)CCNC(=O)CN1CCN(CC(=O)O)CCN(CC(=O)O)CCN(CC(=O)O)CC1` (stereo partly drawn) [JHH14], in test [1] (^177Lu-labeled compound), the “therapeutic effects in mouse tumor model” value is reported as “dose-dependent therapeutic effects”.

The compound `C[C@@H](NC(=O)c1cnc2c(c1)CCN(C(=O)CCC(=O)NCCNC(=O)CCC(C(=O)O)N1CCN(CC(=O)O)CCN(CC(=O)O)CCN(CC(=O)O)CC1)C2)C(=O)N1CC(F)(F)C[C@H]1C#N` (stereo partly drawn) [JHM1, 2,2′,2″-(10-(1-carboxy-4-((2-(4-(3-(((R)-1-((S)-2-cyano-4,4-difluoropyrrolidin-1-yl)-1-oxopropan-2-yl)carbamoyl)-5,8-dihydro-1,7-naphthyridin-7 (6H)-yl)-4-oxobutanamido)ethyl)amino)-4-oxobutyl)-1,4,7,10-tetraazacyclododecane-1,4,7-triyl)triacetic acid] gave an equilibrium dissociation constant (Kd) at FAP protein of 100 to 1000 nM.

For the compound `N#C[C@@H]1CC(F)(F)CN1C(=O)CNC(=O)c1cccc2c1CCN(C(=O)CCC(=O)NCCNC(=O)CCC(C(=O)O)N1CCN(CC(=O)O)CCN(CC(=O)O)CCN(CC(=O)O)CC1)C2` (stereo partly drawn) [^177Lu-JHH5, metal not drawn], in test [1], the T/C stood at 20.89%, the “Tumor volume (mm^3) Group administration Day 14” value came to 545.74 ± 94.21 mm^3, the “TGI^TV (%)” value was determined as 83.08% and the “Tumor volume (mm^3) Before administration” value is reported as 148.04 ± 9.78 mm^3.

Regarding `N#C[C@@H]1CC(F)(F)CN1C(=O)CNC(=O)c1cccc(C2CCN(C(=O)CCC(=O)NCCNC(=O)CCC(C(=O)O)N3CCN(CC(=O)O)CCN(CC(=O)O)CCN(CC(=O)O)CC3)CC2)c1.[177Lu]` (stereo partly drawn) [^177Lu-JHH9], in test [1], the T/C came to 30.65%, the “Tumor volume (mm^3) Group administration Day 14” value turned out to be 800.87 ± 42.08 mm^3, the “TGI^TV (%)” value is 72.54% and the “Tumor volume (mm^3) Before administration” value is listed as 155.24 ± 14.81 mm^3.

Turning to `N#C[C@@H]1CC(F)(F)CN1C(=O)CNC(=O)c1cccc2c1CCCN2C(=O)CCC(=O)NCCNC(=O)CCC(C(=O)O)N1CCN(CC(=O)O)CCN(CC(=O)O)CCN(CC(=O)O)CC1.[177Lu]` (stereo partly drawn) [^177Lu-JHH10], in test [1], the T/C was determined as 19.38%, the “Tumor volume (mm^3) Group administration Day 14” value was 506.26 ± 26.61 mm^3, the “TGI^TV (%)” value is listed as 84.48% and the “Tumor volume (mm^3) Before administration” value was found to be 141.47 ± 12.20 mm^3.

Consider `N#C[C@@H]1CC(F)(F)CN1C(=O)CNC(=O)c1cccc2c1CCCC2C(=O)CCC(=O)NCCNC(=O)CCNC(=O)CN1CCN(CC(=O)O)CCN(CC(=O)O)CCN(CC(=O)O)CC1.[177Lu]` (stereo partly drawn) [^177Lu-JHH14], for which, in test [1], the T/C came to 28.93%, the “Tumor volume (mm^3) Group administration Day 14” value amounted to 755.85 ± 58.74 mm^3, the “TGI^TV (%)” value came to 74.39% and the “Tumor volume (mm^3) Before administration” value is listed as 153.87 ± 16.47 mm^3.

Take `N#C[C@@H]1CC(F)(F)CN1C(=O)CNC(=O)c1ccnc2c(NC(=O)CCC(=O)NCCNC(=O)CCC(C(=O)O)N3CCN(CC(=O)O)CCN(CC(=O)O)CCN(CC(=O)O)CC3)cccc12.[177Lu]` (stereo partly drawn) [^177Lu-OncoFAP-DOTAGA, reference compound]: in test [1], the T/C was 32.33%, the “Tumor volume (mm^3) Group administration Day 14” value was found to be 844.66 ± 41.70 mm^3, the “TGI^TV (%)” value came to 69.90% and the “Tumor volume (mm^3) Before administration” value came out at 137.00 ± 12.07 mm^3.

As a reminder, the Kd is the concentration at which binding is half-saturated. Low values mean higher affinity, high ones lower affinity. As a reminder, the T/C is the result in the treated group divided by that in the control group, in per cent.
